Test results published in ChEMBL document CHEMBL3046126, “Synthesis and Herbicidal Activity of New Oxazolidinedione Derivatives” (J Pestic Sci, 1999).

Experiments:
Echinochloa oryzicola [1] = assay: Pre-emergence herbicidal activity against Echinochloa oryzicola assessed as phytotoxic weed control visual ratings measured after 14 days post treatment; format: functional
Cyperus difformis [2] = assay: Pre-emergence herbicidal activity against Cyperus difformis assessed as phytotoxic weed control visual ratings at 25 g ai/ha measured after 14 days post treatment under flooded conditions; format: functional
Oryza sativa [3] = assay: Pre-emergence phytotoxicity against Oryza sativa cv. Koshihikari (rice) assessed as phytotoxic crop injury visual ratings at 25 g ai/ha measured after 14 days post treatment under flooded conditions; format: organism-based; details: in vivo, other, 336 h
Rotala indica [4] = assay: Pre-emergence herbicidal activity against Rotala indica assessed as phytotoxic weed control visual ratings at 25 g ai/ha measured after 14 days post treatment under flooded conditions; format: functional
Echinochloa crus-galli [5] = assay: Pre-emergence herbicidal activity against Echinochloa crus-galli (barnyard grass) assessed as phytotoxic weed control visual ratings at 500 g ai/ha measured after 14 days post treatment under upland field conditions; format: functional
Echinochloa oryzicola [6] = assay: Pre-emergence herbicidal activity against Echinochloa oryzicola assessed as phytotoxic weed control visual ratings at 25 g ai/ha measured after 14 days post treatment under flooded conditions; format: functional
Elatine triandra [7] = assay: Pre-emergence herbicidal activity against Elatine triandra assessed as phytotoxic weed control visual ratings at 25 g ai/ha measured after 14 days post treatment under flooded conditions; format: functional
Zea mays = assay: Pre-emergence phytotoxicity against Zea mays (maize) assessed as phytotoxic crop injury visual ratings at 500 g ai/ha measured after 14 days post treatment under upland field conditions; format: organism-based; details: in vivo, other, 336 h
Echinochloa oryzicola [8] = assay: Post-emergence herbicidal activity against Echinochloa oryzicola assessed as phytotoxic weed control visual ratings measured after 14 days post treatment; format: functional
[9] = Selectivity index, ratio of ED10 for Oryza sativa to ED90 for Echinochloa oryzicola by pre-emergence exposure method
Oryza sativa [10] = assay: Pre-emergence phytotoxicity against Oryza sativa cv. Koshihikari (rice) assessed as phytotoxic crop injury visual ratings measured after 14 days post treatment; format: organism-based; details: in vivo, 336 h
Amaranthus viridis = assay: Pre-emergence herbicidal activity against Amaranthus viridis assessed as phytotoxic weed control visual ratings at 500 g ai/ha measured after 14 days post treatment under upland field conditions; format: functional
Pontederia vaginalis [11] = assay: Pre-emergence herbicidal activity against Monochoria vaginalis assessed as phytotoxic weed control visual ratings at 25 g ai/ha measured after 14 days post treatment under flooded conditions; format: functional
Digitaria ciliaris = assay: Pre-emergence herbicidal activity against Digitaria ciliaris assessed as phytotoxic weed control visual ratings at 500 g ai/ha measured after 14 days post treatment under upland field conditions; format: functional
[12] = Selectivity index, ratio of ED10 for Oryza sativa to ED90 for Echinochloa oryzicola by post-emergence exposure method
Oryza sativa [13] = assay: Post-emergence phytotoxicity against Oryza sativa cv. Koshihikari (rice) assessed as phytotoxic crop injury visual ratings measured after 14 days post treatment; format: organism-based; details: in vivo, 336 h
Lindernia procumbens [14] = assay: Pre-emergence herbicidal activity against Lindernia procumbens assessed as phytotoxic weed control visual ratings at 25 g ai/ha measured after 14 days post treatment under flooded conditions; format: functional
Chenopodium album = assay: Pre-emergence herbicidal activity against Chenopodium album assessed as phytotoxic weed control visual ratings at 500 g ai/ha measured after 14 days post treatment under upland field conditions; format: functional
[15] = test system: Schoenoplectiella juncoides; assay: Pre-emergence herbicidal activity against Schoenoplectiella juncoides assessed as phytotoxic weed control visual ratings at 25 g ai/ha measured after 14 days post treatment under flooded conditions; format: functional
Oryza sativa [16] = assay: Pre-emergence phytotoxicity against Oryza sativa cv. Koshihikari (rice) assessed as phytotoxic crop injury visual ratings at 2.5 kg ai/ha measured after 14 days post treatment under flooded conditions; format: organism-based; details: in vivo, other, 336 h
Rotala indica [17] = assay: Pre-emergence herbicidal activity against Rotala indica assessed as phytotoxic weed control visual ratings at 2.5 kg ai/ha measured after 14 days post treatment under flooded conditions; format: functional
[18] = test system: Schoenoplectiella juncoides; assay: Pre-emergence herbicidal activity against Schoenoplectiella juncoides assessed as phytotoxic weed control visual ratings at 2.5 kg ai/ha measured after 14 days post treatment under flooded conditions; format: functional
[19] = test system: Schoenoplectiella juncoides; assay: Pre-emergence herbicidal activity against Schoenoplectiella juncoides assessed as phytotoxic weed control visual ratings at 1.25 kg ai/ha measured after 14 days post treatment under flooded conditions; format: functional
Pontederia vaginalis [20] = assay: Pre-emergence herbicidal activity against Monochoria vaginalis assessed as phytotoxic weed control visual ratings at 1.25 kg ai/ha measured after 14 days post treatment under flooded conditions; format: functional
Rotala indica [21] = assay: Pre-emergence herbicidal activity against Rotala indica assessed as phytotoxic weed control visual ratings at 1.25 kg ai/ha measured after 14 days post treatment under flooded conditions; format: functional
Oryza sativa [22] = assay: Pre-emergence phytotoxicity against Oryza sativa cv. Koshihikari (rice) assessed as induction of leaf sheath browning at 2.5 kg ai/ha measured after 14 days post treatment under flooded conditions; format: organism-based; details: in vivo, other, 336 h
Lindernia procumbens [23] = assay: Pre-emergence herbicidal activity against Lindernia procumbens assessed as phytotoxic weed control visual ratings at 1.25 kg ai/ha measured after 14 days post treatment under flooded conditions; format: functional
Cyperus difformis [24] = assay: Pre-emergence herbicidal activity against Cyperus difformis assessed as phytotoxic weed control visual ratings at 1.25 kg ai/ha measured after 14 days post treatment under flooded conditions; format: functional
Cyperus difformis [25] = assay: Pre-emergence herbicidal activity against Cyperus difformis assessed as phytotoxic weed control visual ratings at 2.5 kg ai/ha measured after 14 days post treatment under flooded conditions; format: functional
Pontederia vaginalis [26] = assay: Pre-emergence herbicidal activity against Monochoria vaginalis assessed as phytotoxic weed control visual ratings at 2.5 kg ai/ha measured after 14 days post treatment under flooded conditions; format: functional
Elatine triandra [27] = assay: Pre-emergence herbicidal activity against Elatine triandra assessed as phytotoxic weed control visual ratings at 1.25 kg ai/ha measured after 14 days post treatment under flooded conditions; format: functional
Echinochloa oryzicola [28] = assay: Pre-emergence herbicidal activity against Echinochloa oryzicola assessed as phytotoxic weed control visual ratings at 2.5 kg ai/ha measured after 14 days post treatment under flooded conditions; format: functional
Oryza sativa [29] = assay: Pre-emergence phytotoxicity against Oryza sativa cv. Koshihikari (rice) assessed as phytotoxic crop injury visual ratings at 1.25 kg ai/ha measured after 14 days post treatment under flooded conditions; format: organism-based; details: in vivo, other, 336 h
Echinochloa oryzicola [30] = assay: Pre-emergence herbicidal activity against Echinochloa oryzicola assessed as phytotoxic weed control visual ratings at 1.25 kg ai/ha measured after 14 days post treatment under flooded conditions; format: functional
Elatine triandra [31] = assay: Pre-emergence herbicidal activity against Elatine triandra assessed as phytotoxic weed control visual ratings at 2.5 kg ai/ha measured after 14 days post treatment under flooded conditions; format: functional
Lindernia procumbens [32] = assay: Pre-emergence herbicidal activity against Lindernia procumbens assessed as phytotoxic weed control visual ratings at 2.5 kg ai/ha measured after 14 days post treatment under flooded conditions; format: functional
Pontederia vaginalis [33] = assay: Early post-emergence herbicidal activity against Monochoria vaginalis assessed as phytotoxic weed control visual ratings at 50 kg ai/ha measured after 14 days post treatment under flooded conditions; format: functional
Ammannia multiflora = assay: Early post-emergence herbicidal activity against Ammannia multiflora assessed as phytotoxic weed control visual ratings at 50 kg ai/ha measured after 14 days post treatment under flooded conditions; format: functional
Echinochloa crus-galli [34] = assay: Early post-emergence herbicidal activity against Echinochloa crus-galli (barnyard grass) assessed as phytotoxic weed control visual ratings at 50 kg ai/ha measured after 14 days post treatment under flooded conditions; format: functional

SMILES	ED90 (Echinochloa oryzicola [1]) [gAi/ha]	Phytotoxicity (Cyperus difformis [2]) [%]	Phytotoxicity (Oryza sativa [3]) [%]	Phytotoxicity (Rotala indica [4]) [%]	Phytotoxicity (Echinochloa crus-galli [5]) [%]	Phytotoxicity (Echinochloa oryzicola [6]) [%]	Phytotoxicity (Elatine triandra [7]) [%]	Phytotoxicity (Zea mays) [%]	ED90 (Echinochloa oryzicola [8]) [gAi/ha]	Selectivity Index [9]	ED10 (Oryza sativa [10]) [gAi/ha]	Phytotoxicity (Amaranthus viridis) [%]	Phytotoxicity (Pontederia vaginalis [11]) [%]	Phytotoxicity (Digitaria ciliaris) [%]	Selectivity Index [12]	ED10 (Oryza sativa [13]) [gAi/ha]	Phytotoxicity (Lindernia procumbens [14]) [%]	Phytotoxicity (Chenopodium album) [%]	Phytotoxicity [15] [%]	other results
CC(C)Oc1cc(-n2nc(C(C)(C)C)oc2=O)c(Cl)cc1Cl [OXADIAZON]	25	100	0	100	100	90	100	40	50	8	200	100	100	100	8	400	100	100	100	–
CC(C)=C1OC(=O)N(c2ccc(Cl)cc2)C1=O	–	–	–	–	–	–	–	–	–	–	–	–	–	–	–	–	–	–	–	Phytotoxicity (Oryza sativa [16]): 30%; Phytotoxicity (Rotala indica [17]): 100%; Phytotoxicity [18]: 100%; Phytotoxicity [19]: 100%; Phytotoxicity (Pontederia vaginalis [20]): 100%; Phytotoxicity (Rotala indica [21]): 100%; Activity (Oryza sativa [22]): Toxic; Phytotoxicity (Lindernia procumbens [23]): 100%; Phytotoxicity (Cyperus difformis [24]): 100%; Phytotoxicity (Cyperus difformis [25]): 100%; Phytotoxicity (Pontederia vaginalis [26]): 100%; Phytotoxicity (Elatine triandra [27]): 100%; Phytotoxicity (Echinochloa oryzicola [28]): 100%; Phytotoxicity (Oryza sativa [29]): 10%; Phytotoxicity (Echinochloa oryzicola [30]): 90%; Phytotoxicity (Elatine triandra [31]): 100%; Phytotoxicity (Lindernia procumbens [32]): 100%
C#CCOc1cc(N2C(=O)OC(=C(C)C)C2=O)c(Cl)cc1Cl	–	–	–	–	–	–	–	–	–	–	–	–	–	–	–	–	–	–	–	Phytotoxicity (Pontederia vaginalis [33]): 100%; Phytotoxicity (Ammannia multiflora): 90%; Phytotoxicity (Echinochloa crus-galli [34]): 90%
CC(C)=C1OC(=O)N(c2ccc(Cl)c(Cl)c2)C1=O	–	–	–	–	–	–	–	–	–	–	–	–	–	–	–	–	–	–	–	Phytotoxicity (Oryza sativa [16]): 10%; Phytotoxicity (Rotala indica [17]): 100%; Phytotoxicity [18]: 80%; Activity (Oryza sativa [22]): Toxic; Phytotoxicity (Cyperus difformis [25]): 100%; Phytotoxicity (Pontederia vaginalis [26]): 80%; Phytotoxicity (Echinochloa oryzicola [28]): 10%; Phytotoxicity (Elatine triandra [31]): 100%; Phytotoxicity (Lindernia procumbens [32]): 100%
CC(C)=C1OC(=O)N(c2ccc(Cl)cc2Cl)C1=O	–	–	–	–	–	–	–	–	–	–	–	–	–	–	–	–	–	–	–	Phytotoxicity (Oryza sativa [16]): 20%; Phytotoxicity (Rotala indica [17]): 100%; Phytotoxicity [18]: 100%; Activity (Oryza sativa [22]): Toxic; Phytotoxicity (Cyperus difformis [25]): 100%; Phytotoxicity (Pontederia vaginalis [26]): 100%; Phytotoxicity (Echinochloa oryzicola [28]): 100%; Phytotoxicity (Elatine triandra [31]): 100%; Phytotoxicity (Lindernia procumbens [32]): 100%
CC(C)=C1OC(=O)N(c2cc(OC3CCCCC3)c(Cl)cc2F)C1=O	25	100	0	100	10	100	100	10	25	8	200	30	100	30	8	200	100	20	80	–
C#CCOc1cc(N2C(=O)OC(=C(C)C)C2=O)c(F)cc1Cl	3.13	100	30	100	80	100	100	10	12.5	2	6.25	100	100	100	2	25	100	100	100	Phytotoxicity (Pontederia vaginalis [33]): 100%; Phytotoxicity (Ammannia multiflora): 100%; Phytotoxicity (Echinochloa crus-galli [34]): 100%
CC(C)=C1OC(=O)N(c2cc(OC(C)C)c(Cl)cc2F)C1=O	25	100	0	100	90	100	100	10	25	4	100	100	100	100	6	150	100	100	90	–
CC(C)=C1OC(=O)N(c2cc(OC3CCCC3)c(Cl)cc2F)C1=O [PENTOXAZONE]	12.5	100	0	100	60	100	100	10	25	16	200	100	100	90	16	400	100	50	100	–
C=CCOc1cc(N2C(=O)OC(=C(C)C)C2=O)c(F)cc1Cl	50	100	0	100	30	80	100	10	100	1	50	80	100	90	1	100	100	70	90	–
C#CCOc1cc(N2C(=O)OC(=C(C)C)C2=O)c(F)cc1Br	–	–	–	–	–	–	–	–	–	–	–	–	–	–	–	–	–	–	–	Phytotoxicity (Pontederia vaginalis [33]): 100%; Phytotoxicity (Ammannia multiflora): 100%; Phytotoxicity (Echinochloa crus-galli [34]): 80%
C#CCSc1cc(N2C(=O)OC(=C(C)C)C2=O)c(F)cc1Cl	12.5	100	0	100	50	100	100	0	100	4	50	100	100	30	2	200	100	100	100	–
